{
  "source": "patent US20150224129A1",
  "about": "(priority 2012, published 2015)",
  "key": {"S. pneumoniae": {"system": "S. pneumoniae", "conditions": "exogenous activation of lung iNKT cells; high dose of bacteria; no previous influenza; cited from earlier work"}, "S. pneumoniae serotype 1": {"system": "S. pneumoniae serotype 1", "design": "species or system mice", "conditions": "mouse, in vivo"}, "iNKT cells": {"system": "iNKT cells", "assay": "Analysis of lung iNKT cell activation (intracellular IFN-γ, flow cytometry)", "assay_type": "in vivo, mice", "conditions": "lung iNKT cells of IAV-experienced animals (day 7 post-IAV) compared with naïve animals; i.n. administration"}},
  "data": [
    {"smiles": "CCCCCCCCCCCCCCCCCCCCCCCCCC(=O)N[C@@H](CO[C@H]1O[C@H](CO)[C@H](O)[C@H](O)[C@H]1O)[C@H](O)[C@H](O)CCCCCCCCCCCCCC", "note": "[α-GalCer, α-galactosylceramide]", "values": [
      {"measurement": "clearance of S. pneumoniae", "setting": "S. pneumoniae", "value": "leads to the clearance of S. pneumoniae"},
      {"measurement": "protection against S. pneumoniae challenge, as assessed by the enhanced survival rate", "setting": "S. pneumoniae serotype 1", "value": "~70", "unit": "%"},
      {"measurement": "iNKT cell activation (IFN-γ production) in response to α-GalCer", "setting": "iNKT cells", "value": "leads to iNKT cell activation"}
    ]}
  ]
}
